# Experimental data reported in article PMC9784969, “SARS-CoV-2 Inhibitors Identified by Phenotypic Analysis of a Collection of Viral RNA-Binding Molecules” (Pharmaceuticals, 2022).
# Where two headings read alike, the source gives them in different places.
# How the values were obtained:
# SARS-CoV-2 USA-WA1/2020 [1] = test: microbe, parasite or virus in culture; assay type: cell-based; conditions: Severe acute respiratory syndrome coronavirus 2, 48 h; 293T-ACE2 cells, MOI 0.25, two days; read-out: SARS-CoV-2 EC50
# ATTL RNA = test: ligand-based 1H NMR (1D, CPMG, wLOGSY); assay type: binding, SARS-CoV-2
# 5_SL2+3 RNA = test: ligand-based 1H NMR (1D, CPMG, wLOGSY); assay type: binding, SARS-CoV-2
# SCoV2 USA-WA1/2020 = assay type: cell-based
# ORF7b RNA = test: ligand-based 1H NMR (1D, CPMG, wLOGSY); assay type: binding, SARS-CoV-2
# PRF RNA = test: ligand-based 1H NMR (1D, CPMG, wLOGSY); assay type: binding, SARS-CoV-2
# 3_S2m-23fl RNA hairpin = test: fluorescence intensity binding assay; parameters: species or system SARS-CoV-2; conditions: 0 mM NaCl, pH 6.6, 25 °C; read-out: Kd
# Description: The 3_S2m-23fl RNA oligonucleotide used in fluorescence intensity experiments was purchased HPLC-purified from Integrated DNA Technologies (Coralville, IA, USA). […] The mixture of tRNAs from E. coli MRE 600 (identified as tRNA^mix) used to evaluate specificity was obtained from Roche (Basel, Switzerland).
# 3_S2m-23fl (at 100 nM concentration) was snap-cooled in a buffer containing sodium phosphate pH 6.6, 0 or 150 mM NaCl, and 0.1 mM EDTA and incubated with increasing amounts of compound. The specificity of the RNA–ligand interactions was evaluated by repeating the assays in the presence of a 100-fold molar excess (10 μM) of tRNA^mix. The equilibrium dissociation constants Kd were obtained by fitting the dose–response curves to a two-state binding model [41] with Prism software (GraphPad Software, San Diego, CA, USA). All fluorescence binding assays were carried out three times for each molecule and condition.
# SARS-CoV-2 = assay type: cell-based; conditions: 48 h post-infection
# in vitro = conditions: African green monkey, uninfected Vero E6 cells
# SARS-CoV-2 USA-WA1/2020 [2] = test: microbe, parasite or virus in culture; assay type: cell-based; conditions: Severe acute respiratory syndrome coronavirus 2, Vero C1008, 48 h, Vero E6 cells, MOI 0.025, two days; read-out: SARS-CoV-2 EC50
# [3] = average of aliphatic protons, RNA:ligand 1:100 (clomiphene) or 1:50 (trim, qz2)
# [4] = average of aromatic protons, RNA:ligand 1:100 (clomiphene) or 1:50 (trim, qz2)
smiles,measurement,setting,value
CC(C)CCN1CCC(CNc2nc3ccccc3c(=O)[nH]2)CC1 [qz2],EC50,SARS-CoV-2 USA-WA1/2020 [1],0.12 µM
same,CPMG variation,ATTL RNA; [3],1.57%
same,LB,ATTL RNA; [3],4.09%
same,LOGSY factor,ATTL RNA; [3],4.38%
same,CPMG variation,ATTL RNA; [4],10.0%
same,LB,ATTL RNA; [4],3.39%
same,LOGSY factor,ATTL RNA; [4],9.98%
same,CPMG variation,"ATTL RNA; qz2 peak A, RNA:ligand 1:50",7.14%
same,LB,"ATTL RNA; qz2 peak A, RNA:ligand 1:50",6.48%
same,LOGSY factor,"ATTL RNA; qz2 peak A, RNA:ligand 1:50",2.39%
same,CPMG variation,"ATTL RNA; qz2 peak C/D, RNA:ligand 1:50",3.98%
same,LB,"ATTL RNA; qz2 peak C/D, RNA:ligand 1:50",2.52%
same,LOGSY factor,"ATTL RNA; qz2 peak C/D, RNA:ligand 1:50",6.82%
same,CPMG variation,"ATTL RNA; qz2 peak E/B, RNA:ligand 1:50",-8.59%
same,LB,"ATTL RNA; qz2 peak E/B, RNA:ligand 1:50",7.56%
same,LOGSY factor,"ATTL RNA; qz2 peak E/B, RNA:ligand 1:50",2.78%
same,CPMG variation,"ATTL RNA; qz2 peak F, RNA:ligand 1:50",7.26%
same,LB,"ATTL RNA; qz2 peak F, RNA:ligand 1:50",-1.84%
same,LOGSY factor,"ATTL RNA; qz2 peak F, RNA:ligand 1:50",3.39%
same,CPMG variation,"ATTL RNA; qz2 peak G, RNA:ligand 1:50",2.72%
same,LB,"ATTL RNA; qz2 peak G, RNA:ligand 1:50",8.16%
same,LOGSY factor,"ATTL RNA; qz2 peak G, RNA:ligand 1:50",6.53%
same,CPMG variation,"ATTL RNA; qz2 peak I, RNA:ligand 1:50",9.63%
same,LB,"ATTL RNA; qz2 peak I, RNA:ligand 1:50",3.05%
same,LOGSY factor,"ATTL RNA; qz2 peak I, RNA:ligand 1:50",10.3%
same,CPMG variation,"ATTL RNA; qz2 peak J, RNA:ligand 1:50",9.03%
same,LB,"ATTL RNA; qz2 peak J, RNA:ligand 1:50",12.1%
same,LOGSY factor,"ATTL RNA; qz2 peak J, RNA:ligand 1:50",5.22%
same,CPMG variation,"ATTL RNA; qz2 peak K, RNA:ligand 1:50",10.5%
same,LB,"ATTL RNA; qz2 peak K, RNA:ligand 1:50",-5.00%
same,LOGSY factor,"ATTL RNA; qz2 peak K, RNA:ligand 1:50",14.4%
same,CPMG variation,5_SL2+3 RNA; [3],-3.85%
same,LB,5_SL2+3 RNA; [3],-0.01%
same,LOGSY factor,5_SL2+3 RNA; [3],2.85%
same,CPMG variation,5_SL2+3 RNA; [4],4.67%
same,LB,5_SL2+3 RNA; [4],1.97%
same,LOGSY factor,5_SL2+3 RNA; [4],5.80%
same,CPMG variation,"5_SL2+3 RNA; qz2 peak A, RNA:ligand 1:50",3.62%
same,LB,"5_SL2+3 RNA; qz2 peak A, RNA:ligand 1:50",6.29%
same,LOGSY factor,"5_SL2+3 RNA; qz2 peak A, RNA:ligand 1:50",1.74%
same,CPMG variation,"5_SL2+3 RNA; qz2 peak C/D, RNA:ligand 1:50",-2.36%
same,LB,"5_SL2+3 RNA; qz2 peak C/D, RNA:ligand 1:50",-0.32%
same,LOGSY factor,"5_SL2+3 RNA; qz2 peak C/D, RNA:ligand 1:50",3.84%
same,CPMG variation,"5_SL2+3 RNA; qz2 peak E/B, RNA:ligand 1:50",-11.8%
same,LB,"5_SL2+3 RNA; qz2 peak E/B, RNA:ligand 1:50",8.30%
same,LOGSY factor,"5_SL2+3 RNA; qz2 peak E/B, RNA:ligand 1:50",4.57%
same,CPMG variation,"5_SL2+3 RNA; qz2 peak F, RNA:ligand 1:50",-1.52%
same,LB,"5_SL2+3 RNA; qz2 peak F, RNA:ligand 1:50",-13.0%
same,LOGSY factor,"5_SL2+3 RNA; qz2 peak F, RNA:ligand 1:50",2.30%
same,CPMG variation,"5_SL2+3 RNA; qz2 peak G, RNA:ligand 1:50",-3.33%
same,LB,"5_SL2+3 RNA; qz2 peak G, RNA:ligand 1:50",3.46%
same,LOGSY factor,"5_SL2+3 RNA; qz2 peak G, RNA:ligand 1:50",1.79%
same,CPMG variation,"5_SL2+3 RNA; qz2 peak I, RNA:ligand 1:50",4.89%
same,LB,"5_SL2+3 RNA; qz2 peak I, RNA:ligand 1:50",5.64%
same,LOGSY factor,"5_SL2+3 RNA; qz2 peak I, RNA:ligand 1:50",6.13%
same,CPMG variation,"5_SL2+3 RNA; qz2 peak J, RNA:ligand 1:50",5.88%
same,LB,"5_SL2+3 RNA; qz2 peak J, RNA:ligand 1:50",-6.27%
same,LOGSY factor,"5_SL2+3 RNA; qz2 peak J, RNA:ligand 1:50",7.22%
same,CPMG variation,"5_SL2+3 RNA; qz2 peak K, RNA:ligand 1:50",3.01%
same,LB,"5_SL2+3 RNA; qz2 peak K, RNA:ligand 1:50",6.54%
same,LOGSY factor,"5_SL2+3 RNA; qz2 peak K, RNA:ligand 1:50",4.04%
same,nucleocapsid protein expression,"SCoV2 USA-WA1/2020; 293T-ACE2, MOI 2, 8-h single cycle, added at +2 h relative to infection",strongly inhibited
same,time of addition with maximum inhibition,"SCoV2 USA-WA1/2020; 293T-ACE2, MOI 2, relative to infection",-2 h
same,LB,ORF7b RNA; [3],-7.94%
same,LOGSY factor,ORF7b RNA; [3],6.35%
same,CPMG variation,ORF7b RNA; [4],50.7%
same,LB,ORF7b RNA; [4],26.2%
same,LOGSY factor,ORF7b RNA; [4],33.7%
same,CPMG variation,"ORF7b RNA; qz2 peak A, RNA:ligand 1:50",-33.2%
same,LB,"ORF7b RNA; qz2 peak A, RNA:ligand 1:50",-5.02%
same,LOGSY factor,"ORF7b RNA; qz2 peak A, RNA:ligand 1:50",3.94%
same,CPMG variation,"ORF7b RNA; qz2 peak C/D, RNA:ligand 1:50",-34.1%
same,LB,"ORF7b RNA; qz2 peak C/D, RNA:ligand 1:50",-10.7%
same,LOGSY factor,"ORF7b RNA; qz2 peak C/D, RNA:ligand 1:50",9.65%
same,CPMG variation,"ORF7b RNA; qz2 peak E/B, RNA:ligand 1:50",-16.1%
same,LB,"ORF7b RNA; qz2 peak E/B, RNA:ligand 1:50",-1.09%
same,LOGSY factor,"ORF7b RNA; qz2 peak E/B, RNA:ligand 1:50",5.54%
same,CPMG variation,"ORF7b RNA; qz2 peak F, RNA:ligand 1:50",-4.16%
same,LB,"ORF7b RNA; qz2 peak F, RNA:ligand 1:50",-14.4%
same,LOGSY factor,"ORF7b RNA; qz2 peak F, RNA:ligand 1:50",6.18%
same,CPMG variation,"ORF7b RNA; qz2 peak G, RNA:ligand 1:50",-19.2%
same,LB,"ORF7b RNA; qz2 peak G, RNA:ligand 1:50",-8.90%
same,LOGSY factor,"ORF7b RNA; qz2 peak G, RNA:ligand 1:50",6.45%
same,CPMG variation,"ORF7b RNA; qz2 peak I, RNA:ligand 1:50",48.3%
same,LB,"ORF7b RNA; qz2 peak I, RNA:ligand 1:50",30.9%
same,LOGSY factor,"ORF7b RNA; qz2 peak I, RNA:ligand 1:50",7.00%
same,CPMG variation,"ORF7b RNA; qz2 peak J, RNA:ligand 1:50",45.5%
same,LB,"ORF7b RNA; qz2 peak J, RNA:ligand 1:50",38.3%
same,LOGSY factor,"ORF7b RNA; qz2 peak J, RNA:ligand 1:50",76.3%
same,CPMG variation,"ORF7b RNA; qz2 peak K, RNA:ligand 1:50",58.5%
same,LB,"ORF7b RNA; qz2 peak K, RNA:ligand 1:50",9.52%
same,LOGSY factor,"ORF7b RNA; qz2 peak K, RNA:ligand 1:50",17.9%
same,CPMG variation,PRF RNA; [3],-10.71%
same,LB,PRF RNA; [3],-3.21%
same,LOGSY factor,PRF RNA; [3],3.74%
same,CPMG variation,PRF RNA; [4],13.0%
same,LB,PRF RNA; [4],-0.27%
same,LOGSY factor,PRF RNA; [4],22.5%
same,CPMG variation,"PRF RNA; qz2 peak A, RNA:ligand 1:50",-12.9%
same,LB,"PRF RNA; qz2 peak A, RNA:ligand 1:50",-3.66%
same,LOGSY factor,"PRF RNA; qz2 peak A, RNA:ligand 1:50",3.10%
same,CPMG variation,"PRF RNA; qz2 peak C/D, RNA:ligand 1:50",-17.7%
same,LB,"PRF RNA; qz2 peak C/D, RNA:ligand 1:50",-8.83%
same,LOGSY factor,"PRF RNA; qz2 peak C/D, RNA:ligand 1:50",7.49%
same,CPMG variation,"PRF RNA; qz2 peak E/B, RNA:ligand 1:50",-18.2%
same,LB,"PRF RNA; qz2 peak E/B, RNA:ligand 1:50",3.04%
same,LOGSY factor,"PRF RNA; qz2 peak E/B, RNA:ligand 1:50",2.11%
same,CPMG variation,"PRF RNA; qz2 peak F, RNA:ligand 1:50",-0.60%
same,LB,"PRF RNA; qz2 peak F, RNA:ligand 1:50",-8.91%
same,LOGSY factor,"PRF RNA; qz2 peak F, RNA:ligand 1:50",3.69%
same,CPMG variation,"PRF RNA; qz2 peak G, RNA:ligand 1:50",-7.24%
same,LB,"PRF RNA; qz2 peak G, RNA:ligand 1:50",1.78%
same,LOGSY factor,"PRF RNA; qz2 peak G, RNA:ligand 1:50",2.32%
same,CPMG variation,"PRF RNA; qz2 peak I, RNA:ligand 1:50",13.2%
same,LB,"PRF RNA; qz2 peak I, RNA:ligand 1:50",-0.20%
same,LOGSY factor,"PRF RNA; qz2 peak I, RNA:ligand 1:50",13.3%
same,CPMG variation,"PRF RNA; qz2 peak J, RNA:ligand 1:50",11.4%
same,LB,"PRF RNA; qz2 peak J, RNA:ligand 1:50",-1.72%
same,LOGSY factor,"PRF RNA; qz2 peak J, RNA:ligand 1:50",42.7%
same,CPMG variation,"PRF RNA; qz2 peak K, RNA:ligand 1:50",14.6%
same,LB,"PRF RNA; qz2 peak K, RNA:ligand 1:50",1.11%
same,LOGSY factor,"PRF RNA; qz2 peak K, RNA:ligand 1:50",11.4%
same,Kd,3_S2m-23fl RNA hairpin,26.7 µM
same,viral titers in supernatants (TCID50),SARS-CoV-2,below the limit of detection
same,CC50 at 2 days,in vitro,> 20 µM
same,EC50,SARS-CoV-2 USA-WA1/2020 [2],7.52 µM
